Measurements as given in the Deep4Chem optical property database.
“And” between values parts separate entries of the source, which are not always exact repeats. Identical values can stand only once.

Assay: solvent given as SMILES

SMILES: OCC1O[C@@H](Cc2cc(O)cc(/C=C/c3ccc(O)c(O)c3)c2)[C@H](O)[C@@H](O)[C@@H]1O (stereo not given in full)
- emission maximum (in C1CCOC1): 375 nm
- emission maximum (in C1COCCO1): 370 nm
- emission maximum (in CC#N): 387 nm
- emission maximum (in CC(C)=O): 376 nm
- emission maximum (in CCCCO): 385 nm
- emission maximum (in CCCO): 386 nm
- emission maximum (in CCO): 390 nm
- emission maximum (in CCOC(C)=O): 372 nm
- emission maximum (in CCOCC): 372 nm
- emission maximum (in CN(C)C=O): 378 nm
- emission maximum (in CO): 394 nm
- emission maximum (in CS(C)=O): 381 nm
- emission maximum (in Cc1ccccc1): 371 nm
- emission maximum (in ClC(Cl)Cl): 373 nm
- emission maximum (in O): 403 nm

SMILES: CCCCCCCCCCn1c(-c2cc(-c3nc4ccccc4n3CCCCCCCCCC)cc(-c3nc4ccccc4n3CCCCCCCCCC)c2)nc2ccccc21
- emission maximum (in C1CCOC1): 360.5 nm

SMILES: CCCCCCCCn1c2cc(/C=C/c3ccc(N(c4ccccc4)c4ccccc4)cc3)ccc2c2cc3c(cc21)c1ccc(/C=C/c2ccc(N(c4ccccc4)c4ccccc4)cc2)cc1n3CCCCCCCC
- emission maximum (in Cc1ccccc1): 473 nm

SMILES: C(=C\c1ccc(N(c2ccc(/C=C/c3ccc(N(c4ccccc4)c4ccccc4)cc3)cc2)c2ccc(-c3nc4ccccc4nc3-c3ccc(N(c4ccc(/C=C/c5ccc(N(c6ccccc6)c6ccccc6)cc5)cc4)c4ccc(/C=C/c5ccc(N(c6ccccc6)c6ccccc6)cc5)cc4)cc3)cc2)cc1)/c1ccc(N(c2ccccc2)c2ccccc2)cc1
- emission maximum (in C1CCOC1): 532 nm
- emission maximum (in Cc1ccccc1): 521 nm

SMILES: c1ccc2c3c(ccc2c1)-c1c2ccccc2cc2cccc-3c12
- emission maximum (in CCCCCCC): 603 nm

SMILES: FC(F)(F)c1ccc(-c2ccc(-c3cc(-c4ccccn4)nc(-c4ccccn4)c3)cc2)cc1
- emission maximum (in ClCCl): 359 nm

SMILES: CC(C)[Si](C#Cc1c2ccccc2c(C#Cc2c3ccccc3c(C#Cc3c4ccccc4c(C#Cc4c5ccccc5c(C#C[Si](C(C)C)(C(C)C)C(C)C)c5ccccc45)c4ccccc34)c3ccccc23)c2ccccc12)(C(C)C)C(C)C
- emission maximum (in Cc1ccccc1): 609 nm

SMILES: C(#Cc1cc2ccc3cccc4ccc(c1)c2c34)c1ccccc1
- emission maximum (in Cc1ccccc1): 399 nm

SMILES: CC1(C)[C@@H]2CC[C@]1(C)c1nc3cc(-c4cccs4)ccc3nc12
- emission maximum (in CC#N): 418 nm
- emission maximum (in CCCCCC): 402 nm
- emission maximum (in CCCCO): 442 nm
- emission maximum (in CCO): 446 nm
- emission maximum (in CCOC(C)=O): 406 nm
- emission maximum (in CO): 451 nm
- emission maximum (in Cc1ccccc1): 402 nm
- emission maximum (in ClC(Cl)Cl): 415 nm
- emission maximum (in ClCCl): 413 nm

SMILES: CC[n+]1ccc(/C=C/c2cc(OC)c(C=O)cc2OC)cc1
- emission maximum (in C1CCOC1): 557 nm
- emission maximum (in CC#N): 566 nm
- emission maximum (in CN(C)C=O): 565 nm
- emission maximum (in Cc1ccccc1): 554 nm
- emission maximum (in ClCCl): 561 nm
- emission maximum (in O): 558 nm

SMILES: C=C[Si](c1c2ccccc2cc2ccccc12)(c1c2ccccc2cc2ccccc12)c1c2ccccc2cc2ccccc12
- emission maximum (in ClC(Cl)Cl): 437 nm

SMILES: Cc1cccc(C)c1-c1cc2c(C)c3c4cc5nc6ccc7c8c(C)c9cc(-c%10c(C)cccc%10C)c(-c%10c(C)cccc%10C)cc9c(C)c8c7c6nc5cc4c3c(C)c2cc1-c1c(C)cccc1C
- emission maximum (in ClC(Cl)Cl): 576 nm

SMILES: COc1ccc(C2=C(c3ccc(C)cc3)C(c3ccccc3)=[N+]3C2=Nc2c(-c4ccc(OC)cc4)c(-c4ccc(C)cc4)c(-c4ccccc4)n2[B-]3(F)F)cc1
- emission maximum (in Cc1ccccc1): 709 nm

SMILES: ClP1(Cl)=N[P@](Cl)(Oc2ccc3ccc4cccc5ccc2c3c45)=N[P@@](Cl)(Oc2ccc3ccc4cccc5ccc2c3c45)=N1
- emission maximum (in ClCCl): 419 nm

SMILES: COC(=O)C1=C(C(=O)OC)[Se](=O)[C@]23C1=C[C@H](c1ccccc12)c1ccccc13 (stereo not given in full)
- emission maximum (in ClCCl): 495 nm

SMILES: COc1ccc(-c2nc3c(c4c2-c2ccc(C#N)cc2CC4)-c2ccc(C#N)cc2CC3)cc1
- emission maximum (in C1CCOC1): 426 nm
- emission maximum (in CC#N): 430 nm
- emission maximum (in CCCCCC): 420 nm
- emission maximum (in CCOC(C)=O): 423 nm
- emission maximum (in CO): 426 nm
- emission maximum (in CS(C)=O): 435 nm
- emission maximum (in Cc1ccccc1): 422 nm
- emission maximum (in ClCCl): 425 nm

SMILES: Cc1ccc2[nH]c(-c3ccc(-c4ccc(-c5ccc(-c6nc7cc(C)ccc7[nH]6)cc5)c(F)c4)cc3)nc2c1
- emission maximum (in CN(C)C=O): 423 nm

SMILES: N#Cc1c(N2CCCCC2)cc(-c2ccc3ccc4cccc5ccc2c3c45)c2c1Cc1ccccc1-2
- emission maximum (in C1CCOC1): 481 nm

SMILES: CCCC1(CCC)c2cc(C=C(C#Cc3ccccc3)C#Cc3ccccc3)ccc2-c2ccc(C=C(C#Cc3ccccc3)C#Cc3ccccc3)cc21
- emission maximum (in ClC(Cl)Cl): 473 nm

SMILES: Cn1c(=O)c(/N=N/c2ccc(S(=O)(=O)O)c3ccccc23)c(O)c2ccccc21
- emission maximum (in C1CCOC1): 548 nm
- emission maximum (in CC(C)=O): 564 nm
- emission maximum (in CCOC(C)=O): 555 nm
- emission maximum (in CO): 562 nm
- emission maximum (in CS(C)=O): 571 nm
- emission maximum (in Cc1ccccc1): 540 nm
- emission maximum (in ClCCl): 541 nm
- emission maximum (in O): 582 nm

SMILES: N#Cc1cc2ccc(O)cc2oc1=N
- emission maximum (in C1CCOC1): 412 nm
- emission maximum (in CC#N): 408 nm
- emission maximum (in CCOC(C)=O): 414 nm
- emission maximum (in CS(C)=O): 409 nm
- emission maximum (in ClC(Cl)Cl): 415 nm

SMILES: Fc1ccc(C2=[N+]3C(=Nc4c5ccccc5c(-c5ccc(F)cc5)n4[B-]3(F)F)c3ccccc32)cc1
- emission maximum (in ClCCl): 724 nm

SMILES: O=c1oc2ccccc2cc1-c1cc2ccccc2o1
- emission maximum (in CC#N): 442 nm
- emission maximum (in CCOC(C)=O): 433 nm
- emission maximum (in CS(C)=O): 450 nm
- emission maximum (in Cc1ccccc1): 431 nm
- emission maximum (in O): 475 nm

SMILES: COc1ccc(-c2sc3c(-c4ccc(OC)cc4)c4n(c3c2-c2ccc(OC)cc2)[B-](F)(F)[N+]2=Cc3c(-c5ccc(OC)cc5)c5sc(-c6ccc(OC)cc6)c(-c6ccc(OC)cc6)c5n3[B-](F)(F)[N+]2=C4)cc1
- emission maximum (in CC#N): 641 nm
- emission maximum (in CCCCCC): 630 nm
- emission maximum (in CN(C)C=O): 654 nm
- emission maximum (in Cc1ccccc1): 649 nm
- emission maximum (in ClCCl): 648 nm

SMILES: Oc1cccc(-c2nc(-c3ccccc3)c(-c3ccccc3)[nH]2)c1
- emission maximum (in CO): 390 nm

SMILES: CN1C(=CC2=C([O-])C(=Cc3oc4ccccc4[n+]3C)C2=C(C#N)C#N)Sc2ccccc21
- emission maximum (in ClC(Cl)Cl): 682 nm

SMILES: Cc1cc(C)c(-c2cc(-c3c(C)cc(C)cc3C)c3ccc4c(-c5c(C)cc(C)cc5C)cc(-c5c(C)cc(C)cc5C)c5ccc2c3c54)c(C)c1
- emission maximum (in ClCCl): 411 nm

SMILES: COc1ccc(-c2nc(-c3ccc(OC)cc3)c(-c3ccc(OC)cc3)[nH]2)cc1
- emission maximum (in CO): 389 nm

SMILES: Cc1cc(C)c([B-]2(c3c(C)cc(C)cc3C)[O+]=P(c3ccccc3)(c3ccccc3)c3cc(-c4ccc(C(C)(C)C)cc4)sc3-c3sc(-c4ccc(C(C)(C)C)cc4)cc32)c(C)c1
- emission maximum (in C1CCOC1): 498 nm

SMILES: COc1ccc(-c2cc(-c3ccc(C(F)(F)F)cc3)nn2C)cc1
- emission maximum (in ClCCl): 367 nm

SMILES: CCCCNc1ccc2n1[B-](F)(F)[N+]1=CC(/C=C/C(=O)OC(C)(C)C)=CC1=C2c1c(C)cc(C)cc1C
- emission maximum (in ClCCl): 546 nm

SMILES: Cc1ccc2nc3cc4ccccc4cc3c(-c3ccccc3)c2c1
- emission maximum (in ClCCl): 521 nm

SMILES: Cc1ccc(C)n1-c1cccc(C#N)c1
- emission maximum (in C1CCOC1): 481 nm
- emission maximum (in CCCCCC): 403 nm
- emission maximum (in CCCCCl): 477 nm
- emission maximum (in CCOCC): 444 nm
- emission maximum (in ClCCl): 504 nm

SMILES: CC1(C)C(/C=C/C2=C(c3ccc(C(=O)O)cc3)C(=C/C=C3/N(CCCCS(=O)(=O)[O-])c4ccc(S(=O)(=O)[O-])cc4C3(C)C)/CCC2)=[N+](CCCCS(=O)(=O)[O-])c2ccc(S(=O)(=O)[O-])cc21
- emission maximum (in CO): 785 nm and 790 nm

SMILES: COc1cc2cc(-c3cc4cc(OC)c(OC)cc4oc3=O)oc2cc1OC
- emission maximum (in CC#N): 493 nm
- emission maximum (in CCOC(C)=O): 478 nm
- emission maximum (in CS(C)=O): 500 nm
- emission maximum (in Cc1ccccc1): 475 nm
- emission maximum (in O): 435 nm

SMILES: F[B-]1(F)OC(c2ccccc2)=Nc2sc(-c3ccccc3)n[n+]21
- emission maximum (in C1CCOC1): 402 nm
- emission maximum (in CC#N): 415 nm
- emission maximum (in CCO): 409 nm
- emission maximum (in CCOC(C)=O): 411 nm
- emission maximum (in CN(C)C=O): 419 nm
- emission maximum (in Cc1ccccc1): 410 nm
- emission maximum (in ClC(Cl)Cl): 413 nm
- emission maximum (in ClCCl): 412 nm

SMILES: COC(=O)c1cc(=O)n(C)c2cc(-c3cc(OC)c(OC)c(OC)c3)sc12
- emission maximum (in CC#N): 495 nm
- emission maximum (in ClCCl): 485 nm

SMILES: CC(C)(C)c1ccc2c(c1)c1cc(C(C)(C)C)ccc1n2-c1ccc2oc3nc4oc5ccc(C(F)(F)F)cc5c4cc3c2c1
- emission maximum (in C1CCCCC1): 396 nm
- emission maximum (in C1CCOC1): 455 nm
- emission maximum (in CC#N): 513 nm
- emission maximum (in CS(C)=O): 517 nm
- emission maximum (in Cc1ccccc1): 422 nm
- emission maximum (in ClC(Cl)Cl): 364 nm

SMILES: CN(C)c1ccc(/C=C2\CC/C(=C\c3ccc(C#N)cc3)C2=O)cc1
- emission maximum (in C1CCOC1): 651 nm
- emission maximum (in CC#N): 721 nm
- emission maximum (in CC(C)=O): 718 nm
- emission maximum (in CC(C)O): 647 nm
- emission maximum (in CCCCO): 648 nm
- emission maximum (in CCCCOC(C)=O): 631 nm
- emission maximum (in CCCO): 644 nm
- emission maximum (in CCO): 659 nm
- emission maximum (in CCOC(=O)c1ccccc1): 641 nm
- emission maximum (in CCOC(C)=O): 643 nm
- emission maximum (in CCOCC): 580 nm
- emission maximum (in CN(C)C=O): 740 nm
- emission maximum (in CO): 693 nm
- emission maximum (in CS(C)=O): 731 nm
- emission maximum (in Cc1ccccc1): 558 nm
- emission maximum (in ClC(Cl)(Cl)Cl): 513 nm
- emission maximum (in ClC(Cl)Cl): 603 nm
- emission maximum (in ClCCl): 643 nm
- emission maximum (in Clc1ccccc1Cl): 625 nm
- emission maximum (in O=C1CCCC1): 678 nm
- emission maximum (in S=C=S): 535 nm
- emission maximum (in c1ccccc1): 569 nm
- emission maximum (in c1ccncc1): 673 nm

SMILES: CC(C)(C)c1ccc2c(c1)c1cc(C(C)(C)C)ccc1n2-c1ccccc1-c1nc(-c2ccccc2-n2c3ccc(C(C)(C)C)cc3c3cc(C(C)(C)C)ccc32)nc(-c2ccccc2P(=O)(c2ccccc2)c2ccccc2)n1
- emission maximum (in C1CCOC1): 512.54 nm
- emission maximum (in CC#N): 546.04 nm
- emission maximum (in CC(C)=O): 533.4 nm
- emission maximum (in CN(C)C=O): 546.04 nm
- emission maximum (in Cc1ccccc1): 493.22 nm
- emission maximum (in ClC(Cl)Cl): 516.24 nm
- emission maximum (in ClCCl): 529.29 nm
- emission maximum (in O=P(c1ccccc1)(c1ccccc1)c1ccccc1Oc1ccccc1P(=O)(c1ccccc1)c1ccccc1): 500 nm

SMILES: CCOC(=O)c1c(-c2cc3ccc(OC)cc3oc2=O)nn(-c2ccccc2)c1C(=O)OCC
- emission maximum (in ClCCl): 421 nm
